Literature values in patent publication US20040096496A1, “Sustained release pharmaceutical composition of a cephalosporin antibiotic” (Orchid Chemicals & Pharmaceuticals Limited, priority 2002, published 2004).

Details: background statement, species not given

CC=CC1=C(C(=O)O)N2C(=O)[C@@H](NC(=O)[C@H](N)c3ccc(O)cc3)[C@H]2SC1 [Cefprozil]
half-life: 1.17 h
